Data on 22 compounds can be found in patent US7385026B1, “Modified ghrelin polypeptides” (priority 1999, dated 2008).

Read-outs that look alike come from different tables or passages of the source. Square brackets hold non-standard residues; d marks the D form. Peptide text beside a SMILES is read from it. * marks the point of attachment. Octanoyl = CCCCCCCC(=O)*; Ava = NCCCCC(=O)O Bounds are passed on as bounds.

The target of the test is T1, rat GHS-receptor (GHR-R) (Rattus norvegicus, UniProt O08725).
T1 construct: A full-length cDNA for rat GHR-R was obtained by RT-PCR; expressed in transfected cells
T1 sequence (O08725 whole entry): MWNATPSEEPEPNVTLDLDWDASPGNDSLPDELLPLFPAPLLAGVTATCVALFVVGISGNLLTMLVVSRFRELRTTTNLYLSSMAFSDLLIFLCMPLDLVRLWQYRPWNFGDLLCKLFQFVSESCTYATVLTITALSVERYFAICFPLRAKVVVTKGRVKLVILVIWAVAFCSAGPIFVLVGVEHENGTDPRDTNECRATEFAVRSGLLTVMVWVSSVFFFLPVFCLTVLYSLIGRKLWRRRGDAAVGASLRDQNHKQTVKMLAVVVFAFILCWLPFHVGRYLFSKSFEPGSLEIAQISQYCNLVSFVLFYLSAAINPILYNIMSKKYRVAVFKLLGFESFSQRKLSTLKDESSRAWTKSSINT
Nature of the test: Ca-releasing activity (increase in intracellular calcium) in CHO-GHSR62 cells, FLIPR. Format: cell-based. The text has this:
To assay an increase in the intracellular calcium ion concentration (Ca-releasing activity) occurring upon binding of a GH secretagogue (GHS) to GHS-receptor (GHR-R), a cell strain expressing rat GHR-R was created in the following manner. A full-length cDNA for rat GHR-R was obtained by RT-PCR (reverse transcriptase-polymerase chain reaction) where a cDNA derived from rat brain was used as template. From the nucleotide sequence of known rat GHR-R [K. K. Mckee, et al, Molecular Endocrinology 11, 415-423 (1997)], sense and antisense primers consisting of the following nucleotide sequences were synthesized.
The amplified cDNA was ligated to vector pcDNAIII (Invitrogen) to construct expression vector GHSR-pcDNAIII. CHO cells were transformed via the expression vector, and the transformed cells stably expressing GHR-R were selected in a medium containing 1 μg/ml G418. […] A change in the intracellular calcium ion concentration (Ca-releasing activity) was measured by an FLIPR system (Molecular Device). Before this measurement, 4×10^4 CHO-GHSR62 cells were put to a 96-well microplate with black wall (Corning Co., Ltd) and cultured for 12 to 15 hours. Then, the cells were incubated with 4 μM fluorescent Fluo4 (Molecular Probe Co., Ltd) for 1 hour and washed four times with Hank's BSS (Hank's Balanced Salt Solution) containing 20 mM Hepes ([N-2-hydroxyethyl]-piperazine-N-[2-ethanesulfonic acid]) and 2.5 mM probenecid, and the Ca-releasing activity was assayed by adding a sample and measuring a change in the fluorescence.
Peptide fragments obtained by partially digested the rat- and human-derived ghrelins by various proteases, or chemically synthesized peptides, were examined for their Ca releasing activity in order to determine a core amino acid sequence and the optimum chain length of a modifying fatty acid necessary for Ca-releasing activity.
The Ca-increasing activities of the ghrelin derivative peptide-type compounds synthesized in Example 10 and the natural ghrelin peptide were measured in the same manner as in Example 1.
In this examination, the intracellular Ca-releasing activity in CHO cells expressing rat GSH receptor was used as the indicator.

[1] abbreviates: CHO-GHSR62 cells (CHO cells expressing rat GHS receptor), FLIPR, read-out: Ca-releasing activity EC50.
Where [2] appears, read: Table 3, Example 9: protease fragments or synthetic peptides, CHO-GHSR62 cells, read-out: Ca-releasing activity (EC50).

`CCCCCCCC(=O)OC[C@H](NC(=O)[C@H](CO)NC(=O)CN)C(=O)N[C@@H](Cc1ccccc1)C(=O)N[C@@H](CC(C)C)C(=O)N[C@@H](CO)C(=O)N1CCC[C@H]1C(=O)N[C@@H](CCC(=O)O)C(=O)N[C@@H](Cc1c[nH]cn1)C(=O)N[C@@H](CCC(N)=O)C(=O)N[C@@H](CCCCN)C(=O)N[C@@H](C)C(=O)N[C@@H](CCC(N)=O)C(=O)N[C@@H](CCCNC(=N)N)C(=O)N[C@@H](CCCCN)C(=O)N[C@@H](CCC(=O)O)C(=O)N[C@@H](CO)C(=O)N[C@@H](CCCCN)C(=O)N[C@@H](CCCCN)C(=O)N1CCC[C@H]1C(=O)N1CCC[C@H]1C(=O)N[C@@H](C)C(=O)N[C@@H](CCCCN)C(=O)N[C@@H](CC(C)C)C(=O)N[C@@H](CCC(N)=O)C(=O)N1CCC[C@H]1C(=O)N[C@@H](CCCNC(=N)N)C(=O)O` [Compound 22, [des Gln^14]-rGhrerin] (H-GSS(Octanoyl)FLSPEHQKAQRKESKKPPAKLQPR-OH; N-terminus and C-terminus assumed): under setting [1], the EC50 (commonly the concentration needed to bring the measured effect to its halfway point) amounted to 0.0015 µM. For the same compound, the “Ca-releasing activity (in words)” value (CHO-GHSR62 cells, listed as Ghrelin-27) is recorded as “completely the same Ca-releasing activity”. In the case of `CCCCCCCC(=O)OC[C@H](NC(=O)[C@H](CO)NC(=O)CN)C(=O)N[C@@H](Cc1ccccc1)C(=O)N[C@@H](CC(C)C)C(=O)N[C@@H](CO)C(=O)N1CCC[C@H]1C(=O)N[C@@H](CCC(=O)O)C(=O)N[C@@H](Cc1c[nH]cn1)C(=O)N[C@@H](CCC(N)=O)C(=O)N[C@@H](CCCNC(=N)N)C(=O)O` [Compound 23, hGhrelin (1-11)], the EC50 under setting [2] stood at 0.015 µM. Same read-out and setting: for `CCCCCCCC(=O)OC[C@H](NC(=O)[C@H](CO)NC(=O)CN)C(=O)N[C@@H](Cc1ccccc1)C(=O)N[C@@H](CC(C)C)C(=O)N[C@@H](CO)C(=O)N1CCC[C@H]1C(=O)N[C@@H](CCC(=O)O)C(=O)N[C@@H](Cc1c[nH]cn1)C(=O)N[C@@H](CCC(N)=O)C(=O)N[C@@H](CCCCN)C(=O)O` [Compound 24, rGbrelin (1-11)] the value was 0.015 µM; for `CCCCCCCC(=O)OC[C@H](NC(=O)[C@H](CO)NC(=O)CN)C(=O)N[C@@H](Cc1ccccc1)C(=O)N[C@@H](CC(C)C)C(=O)N[C@@H](CO)C(=O)N1CCC[C@H]1C(=O)N[C@@H](CCC(=O)O)C(=O)N[C@@H](Cc1c[nH]cn1)C(=O)N[C@@H](CCC(N)=O)C(=O)O` [Compound 25, Ghrelin (1-10)], 0.019 µM. For `CCCCCCCC(=O)OC[C@H](NC(=O)[C@H](CO)NC(=O)CN)C(=O)N[C@@H](Cc1ccccc1)C(=O)N[C@@H](CC(C)C)C(=O)N[C@@H](CO)C(=O)N1CCC[C@H]1C(=O)N[C@@H](CCC(=O)O)C(=O)N[C@@H](Cc1c[nH]cn1)C(=O)O` [Compound 26, Ghrelin (1-9)] (H-GSS(Octanoyl)FLSPEH-OH), the EC50 under setting [1] was determined as 0.038 µM. Turning to `CCCCCCCC(=O)OC[C@H](NC(=O)[C@H](CO)NC(=O)CN)C(=O)N[C@@H](Cc1ccccc1)C(=O)N[C@@H](CC(C)C)C(=O)N[C@@H](CO)C(=O)N1CCC[C@H]1C(=O)N[C@@H](CCC(=O)O)C(=O)O` [Compound 27, Ghrelin (1-8)], the 50% effective concentration (EC50) under setting [2] was determined as 0.1 µM. In the case of `CCCCCCCC(=O)OC[C@H](NC(=O)[C@H](CO)NC(=O)CN)C(=O)N[C@@H](Cc1ccccc1)C(=O)N[C@@H](CC(C)C)C(=O)N[C@@H](CO)C(=O)N1CCC[C@H]1C(=O)N[C@@H](CCC(=O)O)C(N)=O` [Compound 28, Ghrelin (1-8)-amide], under setting [1], the concentration giving a half-maximal response (EC50) stood at 0.013 µM.

As to `CCCCCCCC(=O)OC[C@H](NC(=O)[C@H](CO)NC(=O)CN)C(=O)N[C@@H](Cc1ccccc1)C(=O)N[C@@H](CC(C)C)C(=O)N[C@@H](CO)C(=O)N1CCC[C@H]1C(N)=O` [Compound 29, Ghrelin (1-7)-amide], the concentration giving a half-maximal response (EC50) under setting [1] was found to be 0.0026 µM. On to `CCCCCCCC(=O)OC[C@H](NC(=O)[C@H](CO)NC(=O)CN)C(=O)N[C@@H](Cc1ccccc1)C(=O)N[C@@H](CC(C)C)C(=O)N[C@@H](CO)C(N)=O` [Compound 30, Ghrelin (1-6)-amide] (H-GSS(Octanoyl)FLS-NH2), for which the concentration giving a half-maximal response (EC50) under setting [1] was found to be 0.0048 µM. Take `CCCCCCCC(=O)OC[C@H](NC(=O)[C@H](CO)NC(=O)CN)C(=O)N[C@@H](Cc1ccccc1)C(=O)N[C@@H](CC(C)C)C(N)=O` [Compound 32, Ghrelin (1-5)-amide] (H-GSS(Octanoyl)FL-NH2): the “Ca-releasing activity relative to ghrelin(1-4) amide” value is on record as “about 26 times”. Further, the 50% effective concentration (EC50) under setting [1] stood at 0.0062 µM. `CCCCCCCC(=O)OC[C@H](NC(=O)[C@H](CO)NC(=O)CN)C(=O)N[C@@H](Cc1ccccc1)C(=O)O` [Compound 33-1, Ghrelin (1-4)] (H-GSS(Octanoyl)F-OH): the EC50 under setting [1] worked out at 0.48 µM. For `CCCCCCCC(=O)OC[C@H](NC(=O)[C@H](CO)NC(=O)CN)C(=O)N[C@@H](Cc1ccccc1)C(N)=O` [Compound 33-2, Ghrelin (1-4)-amide] (H-GSS(Octanoyl)F-NH2), the “Ca-releasing activity of ghrelin (1-4) after amidation relative to before amidation” value is “about 3 times”. For the same compound, the 50% effective concentration (EC50) under setting [1] amounted to 0.16 µM. In the case of `CCCCCCCC(=O)OC[C@H](NC(=O)[C@H](CO)NC(=O)CN)C(N)=O` [Compound 34, Ghrelin (1-3)-amide] (H-Gly-Ser-Ser(Octanoyl)-NH2), the EC50 under setting [1] is over 10 µM. Same read-out and setting: for `CCCCCCCC(=O)OC[C@H](NC(=O)[C@H](CO)NC(=O)CN)C(=O)N[C@@H](Cc1ccccc1)C(=O)N[C@@H](CC(C)C)C(=O)N[C@@H](CO)C(=O)N1CCC[C@H]1C(=O)N[C@@H](CCCCN)C(N)=O` [Compound 35, [Lys^8]-Ghrelin (1-8)-amide] (H-GSS(Octanoyl)FLSPK-NH2) the value was 0.0011 µM; for `CCCCCCCC(=O)OC[C@H](NC(=O)[C@H](CO)NC(=O)CN)C(=O)N[C@@H](Cc1ccccc1)C(=O)N[C@@H](CC(C)C)C(=O)N[C@@H](CO)C(=O)N1CCC[C@H]1C(=O)N[C@@H](CCCNC(=N)N)C(N)=O` [Compound 36, [Arg^8]-Ghrelin (1-8)-amide] (H-GSS(Octanoyl)FLSPR-NH2), 0.0011 µM.

As for `CCCCCCCC(=O)OC[C@H](NC(=O)[C@H](CO)NC(=O)CN)C(=O)N[C@@H](Cc1ccccc1)C(=O)N[C@@H](CC(C)C)C(=O)N[C@@H](CCCCN)C(N)=O` [Compound 37, [Lys^6]-Ghrelin (1-6)-amide] (H-GSS(Octanoyl)FLK-NH2), the concentration giving a half-maximal response (EC50) under setting [1] turned out to be 0.012 µM.

For `CCCCCCCC(=O)OC[C@H](NC(=O)[C@H](CO)NC(=O)CN)C(=O)N[C@@H](Cc1ccccc1)C(=O)N[C@@H](CCCCN)C(N)=O` [Compound 38, [Lys^5]-Ghrelin (1-5)-amide] (H-GSS(Octanoyl)FK-NH2), the “Ca-releasing activity relative to ghrelin (1-4) before addition of lysine” value is recorded as “about 50 times”. The 50% effective concentration (EC50) under setting [1] was found to be 0.01 µM. Regarding `CCCCCCCC(=O)OC[C@H](NC(=O)[C@H](CO)NC(=O)CN)C(=O)N[C@H](Cc1ccccc1)C(=O)N[C@@H](CCCCN)C(N)=O` [Compound 39, [^DPhe^4, Lys^5]-Ghrelin (1-5)-amide] (H-GSS(Octanoyl)[dF]K-NH2), under setting [1], the EC50 amounted to 1.7 µM.

As for `CCCCCCCC(=O)OC[C@H](NC(=O)CCCCN)C(=O)N[C@@H](Cc1ccccc1)C(=O)N[C@@H](CC(C)C)C(=O)N[C@@H](CO)C(=O)N1CCC[C@H]1C(N)=O` [Compound 40, [N-Aminopentanoyl]-Ghrelin (3-7)-amide] (H-[Ava]S(Octanoyl)FLSP-NH2), the 50% effective concentration (EC50) under setting [1] was determined as 0.0034 µM. On the same count and under the same terms, to `CCCCCCCC(=O)OC[C@H](NC(=O)[C@H](CO)NC(=O)CNC(C)=O)C(=O)N[C@@H](Cc1ccccc1)C(=O)N[C@@H](CC(C)C)C(=O)N[C@@H](CO)C(=O)N1CCC[C@H]1C(=O)N[C@@H](CCC(=O)O)C(=O)N[C@@H](Cc1c[nH]cn1)C(=O)N[C@@H](CCC(N)=O)C(=O)O` [Compound 41, [N-Acetyl]-Ghrelin (1-10)] belongs over 10 µM. Same read-out and setting: to `CCCCCCCC(=O)OC[C@H](NC(=O)[C@H](CO)NC(=O)CNC(=O)[C@@H](N)Cc1ccc(O)cc1)C(=O)N[C@@H](Cc1ccccc1)C(=O)N[C@@H](CC(C)C)C(=O)N[C@@H](CO)C(=O)N1CCC[C@H]1C(=O)N[C@@H](CCC(=O)O)C(=O)N[C@@H](Cc1c[nH]cn1)C(=O)N[C@@H](CCC(N)=O)C(=O)N[C@@H](CCCCN)C(=O)N[C@@H](C)C(=O)N[C@@H](CCC(N)=O)C(=O)N[C@@H](CCC(N)=O)C(=O)N[C@@H](CCCNC(=N)N)C(=O)N[C@@H](CCCCN)C(=O)N[C@@H](CCC(=O)O)C(=O)N[C@@H](CO)C(=O)N[C@@H](CCCCN)C(=O)N[C@@H](CCCCN)C(=O)N1CCC[C@H]1C(=O)N1CCC[C@H]1C(=O)N[C@@H](C)C(=O)N[C@@H](CCCCN)C(=O)N[C@@H](CC(C)C)C(=O)N[C@@H](CCC(N)=O)C(=O)N1CCC[C@H]1C(=O)N[C@@H](CCCNC(=N)N)C(=O)O` [Compound 42, [N-Tyr]-rGhrelin] belongs 0.12 µM; to `CCCCCCCC(=O)OC[C@H](NC(=O)CN)C(=O)N[C@@H](Cc1ccccc1)C(=O)N[C@@H](CC(C)C)C(=O)N[C@@H](CO)C(=O)N1CCC[C@H]1C(N)=O` [Compound 43, [N-Glycyl]-Ghrelin (3-7)-amide] (H-GS(Octanoyl)FLSP-NH2), 0.38 µM.
